Assays:
[1] = target: T1, mouse CD38 (Mus musculus, UniProt P56528); experiment: mouse recombinant CD38 enzyme assay (hydrolysis of NAD+); type: biochemical; settings: read-out: mCD38 BioChem IC50
T1 sequence (P56528 1-304): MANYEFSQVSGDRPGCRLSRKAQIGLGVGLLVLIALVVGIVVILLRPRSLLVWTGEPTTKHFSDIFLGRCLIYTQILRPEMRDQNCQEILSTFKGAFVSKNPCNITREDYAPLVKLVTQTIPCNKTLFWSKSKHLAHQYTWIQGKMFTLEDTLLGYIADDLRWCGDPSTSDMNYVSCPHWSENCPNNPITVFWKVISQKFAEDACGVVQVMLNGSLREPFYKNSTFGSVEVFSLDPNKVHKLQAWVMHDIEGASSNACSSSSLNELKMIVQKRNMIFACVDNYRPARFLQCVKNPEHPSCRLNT
Method in brief: (§1)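 Steps: compound and recombinant enzyme are mixed, NAD+ is added, and the reaction runs 60 min at room temperature. An ADH/ethanol mix containing a CD38 inhibitor halts hydrolysis and forms NADH. After NaOH quench, resazurin plus diaphorase produce fluorescent resorufin, read at 540/590 nm.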

[2] = target: T2, human CD38 (Homo sapiens, UniProt P28907); experiment: human recombinant CD38 enzyme assay (hydrolysis of NAD+); type: biochemical; settings: human recombinant CD38, 0.4 nM enzyme, 62.5 μM NAD+; read-out: hCD38 BioChem IC50
T2 sequence (P28907 1-300): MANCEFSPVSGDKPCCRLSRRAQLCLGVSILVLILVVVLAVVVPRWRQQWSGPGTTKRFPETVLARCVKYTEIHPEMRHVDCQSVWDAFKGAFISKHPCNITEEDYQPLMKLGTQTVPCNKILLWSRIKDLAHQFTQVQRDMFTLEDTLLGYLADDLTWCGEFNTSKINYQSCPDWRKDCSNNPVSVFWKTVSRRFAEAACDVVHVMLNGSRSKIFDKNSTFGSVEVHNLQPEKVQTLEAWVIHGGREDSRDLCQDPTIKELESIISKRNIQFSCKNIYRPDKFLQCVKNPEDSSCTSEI
Method in brief: as §1

[3] = target: T3, endogenous CD38 in HL60 cells (Homo sapiens, UniProt P28907); experiment: cellular CD38 assay in HL60 cells (cellular NAD levels); type: cell-based; settings: all-trans retinoic acid, 24 hours, read-out: hCD38 HL60 ATRA NAD Cell Diaphorase IC50
T3 construct: endogenous in cells; host or cells: HL60 (leukemic cells, treated with all-trans retinoic acid)
T3 sequence (P28907 1-300): T2 sequence (P28907 1-300)
Method in brief: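 Endogenous CD38 inhibition is inferred from NAD levels in HL60 cells after 24 h compound exposure at 20000 cells per well. A lytic cycling readout (0.2 U/mL diaphorase, 0.8 U/mL alcohol dehydrogenase, resazurin, FMN, ethanol, 0.2% Triton X-100, Tris/EDTA pH 8.4) ran 60 min at ambient temperature. Resorufin fluorescence was read at 540/590 nm.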

| IC50 [1] | IC50 [2] | IC50 [3] | Structure (SMILES) |
| --- | --- | --- | --- |
| 21.3 nM | 28.8 nM | 2370 nM | Cn1cncc1-c1ccnc(C(=O)N[C@H]2C[C@H](c3ccc(F)cc3)C2)n1 [Compound 242, N-((1r,3r)-3-(4-fluorophenyl)cyclobutyl)-4-(1-methyl-1H-imidazol-5-yl)pyrimidine-2-carboxamide] |
| 1.9 nM | 3.1 nM | 253 nM | COc1cc(C(=O)Nc2ccc(C(F)F)nc2)nc(-n2ccnc2)c1 [Compound 187, N-(6-(difluoromethyl)pyridin-3-yl)-6-(1H-imidazol-1-yl)-4-methoxypicolinamide] |
| 43.4 nM | 124 nM | 4520 nM | O=C(N[C@H]1CC[C@H](O)CC1)c1nccc(-n2ccnc2)n1 [Compound 257, N-((1r,4r)-4-hydroxycyclohexyl)-4-(1H-imidazol-1-yl)pyrimidine-2-carboxamide] |
| 20 nM | 108 nM | 2550 nM | O=C(Nc1ccc(C(F)F)nc1)c1cc(C2CC2)nc(-c2cncs2)n1 [Compound 110, 6-cyclopropyl-N-(6-(difluoromethyl)pyridin-3-yl)-2-(thiazol-5-yl)pyrimidine-4-carboxamide] |
| 741 nM | 2110 nM | 8050 nM | O=C(Nc1cccnc1)c1cccc(-c2cncs2)n1 [Compound 11, N-(pyridin-3-yl)-6-(thiazol-5-yl)picolinamide] |
| 6 nM | 11 nM | 2770 nM | Cn1cncc1-c1nccc(C(=O)N[C@H]2CC[C@H](C(F)(F)F)CC2)n1 [Compound 83, 2-(1-methyl-1H-imidazol-5-yl)-N-((1r,4r)-4-(trifluoromethyl)cyclohexyl)pyrimidine-4-carboxamide] |
| 25 nM | 15 nM | 1440 nM | Cn1cncc1-c1cccc(C(=O)Nc2ccc(C(F)(F)F)nc2)n1 [Compound 71, 6-(1-methyl-1H-imidazol-5-yl)-N-(6-(trifluoromethyl)pyridin-3-yl)picolinamide] |
| 13 nM | 43 nM | 1380 nM | Cn1cncc1-c1ccnc(C(=O)N[C@H]2CC[C@H](C)CC2)n1 [Compound 149, 4-(1-methyl-1H-imidazol-5-yl)-N-((1r,4r)-4-methylcyclohexyl)pyrimidine-2-carboxamide] |
| 5.8 nM | 4.3 nM | 1010 nM | Cn1cncc1-c1ccnc(C(=O)Nc2ccc(C(C)(C)O)cc2)n1 [Compound 358, N-(4-(2-hydroxypropan-2-yl)phenyl)-4-(1-methyl-1H-imidazol-5-yl)pyrimidine-2-carboxamide] |
| 29.8 nM | 46.2 nM | 2010 nM | O=C(N[C@H]1C[C@H](c2ccccc2)C1)c1nccc(-n2ccnc2)n1 [Compound 211, 4-(1H-imidazol-1-yl)-N-((1r,3r)-3-phenylcyclobutyl)pyrimidine-2-carboxamide] |
| 190 nM | 91 nM | 3430 nM | NC(=O)c1cncn1-c1cccc(C(=O)Nc2ccc(C(F)(F)F)nc2)n1 [Compound 66, 6-(5-carbamoyl-1H-imidazol-1-yl)-N-(6-(trifluoromethyl)pyridin-3-yl)picolinamide] |
| 28.7 nM | 71.5 nM | 2760 nM | CCO[C@H]1CC[C@H](NC(=O)c2nccc(-c3cncn3C)n2)CC1 [Compound 255, N-((1r,4r)-4-ethoxycyclohexyl)-4-(1-methyl-1H-imidazol-5-yl)pyrimidine-2-carboxamide] |
| 1.6 nM | 4 nM | 410 nM | O=C(Nc1ccc(C(F)F)nc1)c1nc(C2CC2)cc(-n2ccnc2)n1 [Compound 205, 4-cyclopropyl-N-(6-(difluoromethyl)pyridin-3-yl)-6-(1H-imidazol-1-yl)pyrimidine-2-carboxamide] |
| 23 nM | 66 nM | 2910 nM | COc1cc(C(=O)Nc2ccc(C(F)F)nc2)nc(-c2cncs2)n1 [Compound 131, N-(6-(difluoromethyl)pyridin-3-yl)-6-methoxy-2-(thiazol-5-yl)pyrimidine-4-carboxamide] |
| 7 nM | 10 nM | 873 nM | O=C(Nc1ccnc(C(F)(F)F)c1)c1cccc(-n2ccnc2)n1 [Compound 38, 6-(1H-imidazol-1-yl)-N-(2-(trifluoromethyl)pyridin-4-yl)picolinamide] |
| 1010 nM | 345 nM | 3060 nM | Cc1ccc(NC(=O)c2cc(-n3ccnc3)ccn2)cn1 [Compound 2, 4-(1H-imidazol-1-yl)-N-(6-methylpyridin-3-yl)picolinamide] |
| 42 nM | 210 nM | 8310 nM | Cc1ccc(-n2ccnc2)nc1C(=O)N[C@H]1CC[C@H](C(F)F)CC1 [Compound 101, N-(4-(difluoromethyl)cyclohexyl)-6-(1H-imidazol-1-yl)-3-methylpicolinamide] |
| 0.7 nM | 2.4 nM | 655 nM | Cn1cncc1-c1nc(C(=O)Nc2ccc(OC(F)F)nc2)cc(C2CCOCC2)n1 [Compound 282, N-(6-(difluoromethoxy)pyridin-3-yl)-2-(1-methyl-1H-imidazol-5-yl)-6-(tetrahydro-2H-pyran-4-yl)pyrimidine-4-carboxamide] |
| 223 nM | 549 nM | 4460 nM | O=C(Nc1ccncc1)c1cc(-n2ccnc2)ccn1 [Compound 7, 4-(1H-imidazol-1-yl)-N-(pyridin-4-yl)picolinamide] |
| 1.9 nM | 9.3 nM | 2310 nM | Cn1cncc1-c1nc(C(=O)NC2CCC(F)(F)CC2)cc(C2CCOCC2)n1 [Compound 200, N-(4,4-difluorocyclohexyl)-2-(1-methyl-1H-imidazol-5-yl)-6-(tetrahydro-2H-pyran-4-yl)pyrimidine-4-carboxamide] |
| 61.8 nM | 82.9 nM | 8770 nM | Cn1cncc1-c1ccnc(C(=O)N[C@H]2CCN(c3ccccc3)C2)n1 [Compound 246, (S)-4-(1-methyl-1H-imidazol-5-yl)-N-(1-phenylpyrrolidin-3-yl)pyrimidine-2-carboxamide] |
| 2 nM | 21 nM | 2240 nM | COc1cc(C(=O)N[C@H]2CC[C@H](C)CC2)nc(-n2ccnc2)c1 [Compound 166, 6-(1H-imidazol-1-yl)-4-methoxy-N-((1r,4r)-4-methylcyclohexyl)picolinamide] |
| 1.3 nM | 4.1 nM | 1330 nM | Cn1cncc1-c1nc(C(=O)N[C@H]2CC[C@H](OC(F)F)CC2)cc(C2CCOCC2)n1 [Compound 281, N-((1r,4r)-4-(difluoromethoxy)cyclohexyl)-2-(1-methyl-1H-imidazol-5-yl)-6-(tetrahydro-2H-pyran-4-yl)pyrimidine-4-carboxamide] |
| 3.4 nM | 4.1 nM | 2620 nM | Cn1cncc1-c1nc(C(=O)N[C@H]2C[C@H](Oc3ccccc3)C2)cc(C2CCOCC2)n1 [Compound 291, 2-(1-methyl-1H-imidazol-5-yl)-N-((1r,3r)-3-phenoxycyclobutyl)-6-(tetrahydro-2H-pyran-4-yl)pyrimidine-4-carboxamide] |
| 43.9 nM | 13.7 nM | 1130 nM | Cn1cncc1-c1ccnc(C(=O)N[C@H]2C[C@H](c3ccnc(C(F)(F)F)c3)C2)n1 [Compound 270, 4-(1-methyl-1H-imidazol-5-yl)-N-((1r,3r)-3-(2-(trifluoromethyl)pyridin-4-yl)cyclobutyl)pyrimidine-2-carboxamide] |
| 32 nM | 47 nM | 4860 nM | CC(C)c1cc(C(=O)Nc2ccc(C(F)(F)F)nc2)nc(-n2ccnc2)n1 [Compound 170, 2-(1H-imidazol-1-yl)-6-isopropyl-N-(6-(trifluoromethyl)pyridin-3-yl)pyrimidine-4-carboxamide] |
| 2 nM | 7 nM | 765 nM | Cn1cncc1-c1nccc(C(=O)N[C@H]2CC[C@H](C)CC2)n1 [Compound 85, 2-(1-methyl-1H-imidazol-5-yl)-N-((1r,4r)-4-methylcyclohexyl)pyrimidine-4-carboxamide] |
| 7.1 nM | 21.4 nM | 6610 nM | Cn1cncc1-c1nc(C(=O)NC23CC(C(C)(C)O)(C2)C3)cc(C2CCOCC2)n1 [Compound 292, N-(3-(2-hydroxypropan-2-yl)bicyclo[1.1.1]pentan-1-yl)-2-(1-methyl-1H-imidazol-5-yl)-6-(tetrahydro-2H-pyran-4-yl)pyrimidine-4-carboxamide] |
